According to patent US6156789A, “Method for treating abnormal cell proliferation in the brain” (Rhone-Poulenc Rorer S.A., priority 1998, dated 2000):
“And” between values parts separate entries of the source, which are not always exact repeats. Identical values can stand only once. Like-named read-outs stand apart in the source and are kept apart here.

Assays:
[1] = Brain distribution of Compound A in mice with mammary C/16 adenocarcinomas (second method, brain tissue); type: in vivo, C3H/HeN female mice
Procedure: (§1) Mammary C/16 adenocarcinomas were implanted in C3H/HeN female mice. At least 7 days later, 4α,10β-diacetoxy-2α-benzoyloxy-5β,20-epoxy-1β-hydroxy-7β,8β-methylene-9-oxo-19-nor-11-taxen-13α-yl (2R,3S)-3-tert-butoxycarbonylamino-2-hydroxy-3-phenylpropionate ("Compound A") was administered to groups of female mice at doses of 9.5, 15.4, 24.8, 40 or 60.5 mg/kg by intravenous injection under 0.4 or 0.5 ml/injection over 15 seconds. The body weight and date of implantation were recorded for each mouse. Blood and tissue samples were taken 2, 5, 15, 30 and 45 minutes and 1, 4, 14, 24 and 48 hours, after administration. The plasma was separated from the blood samples at 4° C. and frozen immediately. The tissue and tumors were weighed and frozen immediately (-20° C.).
(§2) The plasma and tissue samples were then analyzed for the concentration of Compound A. The plasma was assayed by high pressure liquid chromatography with spectrophotometric detection. For the tissue, liver, heart, kidney, lung, spleen and tumor tissue, samples were assayed by a first method, while a second method was used for the brain tissue analyzed. In the first method, 0.2 g of tissue was combined with 2 ml of sodium phosphate buffer 0.1 M (pH:7) and homogenized. The homogenate was centrifuged and 0.5 ml of supernatant was injected into the chromatographic column. In the second method, 10 μl of standard solution was combined with 0.2 g of brain tissue. 2 ml of methanol/5% perchloric acid (50/50) were added and the mixture was homogenized. The homogenate was centrifuged and 100 μl of supernatant was injected into the chromatographic column.

[2] = Highest non toxic dose in the mouse; details: in vivo, iv, read-out: highest non toxic dose (HNTD)
[3] = Plasma kinetics of Compound A after i.v. injection in mice (HPLC); type: in vivo, C3H/HeN female mice; details: for Cmax at 2 min: read-out: observed maximum plasma concentration
Procedure: as §1, §2

[4] = 0.03 h, 40 μg/kg [sic], single mice
[5] = 0.03 h, 40 μg/kg [sic], single mice, 40 mg/kg, 1.8 min
[6] = 0.08 h, 40 μg/kg [sic], single mice, MEAN=b257
[7] = 0.08 h, 40 μg/kg [sic], single mice, MEAN=b257, 40 mg/kg, 4.8 min
[8] = 0.25 h, 40 μg/kg [sic], single mice
[9] = 0.25 h, 40 μg/kg [sic], single mice, 40 mg/kg, 15 min
[10] = 0.50 h, 40 μg/kg [sic], single mice
[11] = 0.75 h, 40 μg/kg [sic], single mice, MEAN=b278
[12] = 1 h, 40 μg/kg [sic], single mice
[13] = 1 h, 40 μg/kg [sic], single mice, 40 mg/kg, 60 min
[14] = 4 h, 40 μg/kg [sic], single mice
[15] = 4 h, 40 μg/kg [sic], single mice, 40 mg/kg, 240 min
[16] = 14 h, 40 μg/kg [sic], single mice
[17] = 24 h, 40 μg/kg [sic], single mice
[18] = 24 h, 40 μg/kg [sic], single mice, 40 mg/kg, 1440 min
[19] = 48 h, 40 μg/kg [sic], single mice

## CC(=O)O[C@H]1C(=O)[C@]23C[C@H]2C[C@H]2OC[C@@]2(OC(C)=O)[C@H]3[C@H](OC(=O)c2ccccc2)[C@]2(O)C[C@H](OC(=O)[C@H](O)[C@@H](NC(=O)OC(C)(C)C)c3ccccc3)C(C)=C1C2(C)C [Compound A, 4α,10β-diacetoxy-2α-benzoyloxy-5β,20-epoxy-1β-hydroxy-7β,8β-methylene-9-oxo-19-nor-11-taxen-13α-yl (2R,3S)-3-tert-butoxycarbonylamino-2-hydroxy-3-phenylpropionate]
[1]; 40 mg/kg i.v.
  brain and plasma AUCs at 4 hours compared: similar
[1]; 40 mg/kg i.v., mouse
  0 to infinity AUC in brain tissue compared with plasma: ten times that observed for plasma
[1]; [4]
  % of DOSE (brain): 0.42% and 0.53% and 0.47% and 0.36% and 0.45%
  AMOUNT In TISSUE (brain): 4.21 µg and 5.17 µg and 4.34 µg and 3.55 µg and 4.32 µg
[1]; [5]
  Brain CONC.: 11.32 µg/g and 9.51 µg/g and 7.64 µg/g and 9.57 µg/g
  RATIO BRAIN/PLASMA: 0.22 and 0.15
[1]; 0.033 h, 40 mg/kg
  Percentage of Compound A (of dose) in Brain: 0.19%
[1]; [6]
  % of DOSE (brain): 0.60% and 0.49% and 0.58% and 0.56%
  AMOUNT In TISSUE (brain): 6.14 µg and 4.62 µg and 5.62 µg and 5.46 µg
[1]; [7]
  Brain CONC.: 10.69 µg/g and 13.46 µg/g and 12.56 µg/g
  RATIO BRAIN/PLASMA: 0.27 and 0.29 and 0.34
[1]; [8]
  % of DOSE (brain): 0.58% and 0.52% and 0.67% and 0.66% and 0.61%
  AMOUNT In TISSUE (brain): 5.38 µg and 4.88 µg and 6.68 µg and 6.07 µg and 5.75 µg
[1]; [9]
  Brain CONC.: 11.16 µg/g and 15.37 µg/g and 13.12 µg/g and 13.21 µg/g
  RATIO BRAIN/PLASMA: 0.53 and 0.50 and 0.66 and 0.57
[1]; [10]
  % of DOSE (brain): 0.53% and 0.45% and 0.42% and 0.39%
  AMOUNT In TISSUE (brain): 4.78 µg and 4.56 µg and 3.87 µg and 3.53 µg and 4.19 µg
[1]; 0.50 h, 40 μg/kg [sic], single mice, 40 mg/kg, 30 min
  RATIO BRAIN/PLASMA: 0.69 and 0.75
[1]; [11]
  % of DOSE (brain): 0.38% and 0.53% and 0.50% and 0.45%
  AMOUNT In TISSUE (brain): 3.32 µg and 4.99 µg and 4.49 µg and 3.92 µg and 4.18 µg
[1]; 0.75 h, 40 μg/kg [sic], single mice, MEAN=b278, 40 mg/kg, 45 min
  Brain CONC.: 11.46 µg/g and 9.98 µg/g and 9.00 µg/g and 9.5 µg/g
[1]; [12]
  % of DOSE (brain): 0.54% and 0.34% and 0.33% and 0.43% and 0.41%
  AMOUNT In TISSUE (brain): 5.14 µg and 3.35 µg and 3.14 µg and 4.22 µg and 3.96 µg
[1]; [13]
  Brain CONC.: 7.23 µg/g and 7.33 µg/g and 9.05 µg/g and 8.77 µg/g
  RATIO BRAIN/PLASMA: 1.18 and 1.12
[1]; 1 h, 40 mg/kg
  Percentage of Compound A (of dose) in Brain: 0.41%
[1]; [14]
  % of DOSE (brain): 0.34% and 0.45% and 0.36% and 0.40% and 0.39%
  AMOUNT In TISSUE (brain): 3.27 µg and 4.27 µg and 3.40 µg and 3.67 µg and 3.65 µg
[1]; [15]
  Brain CONC.: 10.24 µg/g and 7.88 µg/g and 8.38 µg/g and 8.47 µg/g
  RATIO BRAIN/PLASMA: 2.46 and 2.7 and 2.71
[1]; 4 h, 40 mg/kg
  Percentage of Compound A (of dose) in Brain: 0.39%
[1]; [16]
  % of DOSE (brain): 0.40% and 0.44% and 0.28% and 0.38%
  AMOUNT In TISSUE (brain): 3.73 µg and 4.06 µg and 2.46 µg and 3.65 µg and 3.48 µg
[1]; 14 h, 40 μg/kg [sic], single mice, 40 mg/kg, 840 min
  Brain CONC.: 8.77 µg/g and 5.77 µg/g and 8.23 µg/g and 7.84 µg/g
[1]; [17]
  % of DOSE (brain): 0.39% and 0.29% and 0.33%
  AMOUNT In TISSUE (brain): 3.78 µg and 2.58 µg and 2.79 µg and 3.08 µg and 3.06 µg
[1]; [18]
  Brain CONC.: 6.00 µg/g and 6.20 µg/g and 7.03 µg/g and 6.95 µg/g
  RATIO BRAIN/PLASMA: 20.67 and 20.68
[1]; 24 h, 40 mg/kg
  Percentage of Compound A (of dose) in Brain: 0.33%
[1]; [19]
  % of DOSE (brain): 0.15% and 0.21% and 0.20% and 0.19%
  AMOUNT In TISSUE (brain): 1.55 µg and 2.02 µg and 2.13 µg and 1.97 µg and 1.92 µg
[1]; 48 h, 40 μg/kg [sic], single mice, 40 mg/kg, 2880 min
  Brain CONC.: 4.54 µg/g and 4.77 µg/g and 4.48 µg/g and 4.37 µg/g
[1]; 48 h, 40 mg/kg
  Percentage of Compound A (of dose) in Brain: 0.19%
[1]; dose = 40 mg/kg
  AUC 0-4 Hours, Brain: 36.3 µg·h/g
  AUC 0 to Infinity, Brain: 627 µg·h/g
  t 1/2, Brain: 47.6 h
[1]; mouse, brain, iv, 40 mg/kg, 40 mg/kg i.v., read-out: half-life of the distribution phase, brain (converted)
  half-life: 0.07 h
[1]; mouse, brain, iv, 40 mg/kg, 0.03 h, 40 μg/kg [sic], single mice, read-out: Brain CONC.
  concentration at 0.03 h: 9800 ng/g
[1]; mouse, brain, iv, 40 mg/kg, 0.08 h, 40 μg/kg [sic], single mice, MEAN=b257, read-out: Brain CONC.
  concentration at 0.08 h: 13500 ng/g
[1]; mouse, brain, iv, 40 mg/kg, 0.25 h, 40 μg/kg [sic], single mice, read-out: Brain CONC.
  concentration at 0.25 h: 13200 ng/g
[1]; mouse, brain, iv, 40 mg/kg, 0.50 h, 40 μg/kg [sic], single mice, read-out: Brain CONC.
  concentration at 0.5 h: 11200 ng/g
[1]; mouse, brain, iv, 40 mg/kg, 0.75 h, 40 μg/kg [sic], single mice, MEAN=b278, read-out: Brain CONC.
  concentration at 0.75 h: 7540 ng/g
[1]; mouse, brain, iv, 40 mg/kg, 1 h, 40 μg/kg [sic], single mice, read-out: Brain CONC.
  concentration at 1 h: 11500 ng/g
[1]; mouse, brain, iv, 40 mg/kg, 4 h, 40 μg/kg [sic], single mice, read-out: Brain CONC.
  concentration at 4 h: 7390 ng/g
[1]; mouse, brain, iv, 40 mg/kg, 14 h, 40 μg/kg [sic], single mice, read-out: Brain CONC.
  concentration at 14 h: 8570 ng/g
[1]; mouse, brain, iv, 40 mg/kg, 24 h, 40 μg/kg [sic], single mice, read-out: Brain CONC.
  concentration at 24 h: 8580 ng/g
[1]; mouse, brain, iv, 40 mg/kg, 48 h, 40 μg/kg [sic], single mice, read-out: Brain CONC.
  concentration at 48 h: 3670 ng/g
[1]; mouse, brain, iv, 40 mg/kg, read-out: t 1/2, Brain (converted)
  half-life: 47.6 h
[1]; mouse, brain, iv, 40 mg/kg i.v., read-out: time of maximum concentration, brain
  Tmax: 0.25 h
[1]; mouse, brain/plasma, iv, 40 mg/kg, 0.03 h, 40 μg/kg [sic], single mice, read-out: RATIO BRAIN/PLASMA
  Kp at 0.03 h: 0.2
[1]; mouse, brain/plasma, iv, 40 mg/kg, 0.08 h, 40 μg/kg [sic], single mice, MEAN=b257, read-out: RATIO BRAIN/PLASMA
  Kp at 0.08 h: 0.47
[1]; mouse, brain/plasma, iv, 40 mg/kg, 0.25 h, 40 μg/kg [sic], single mice, read-out: RATIO BRAIN/PLASMA
  Kp at 0.25 h: 0.6
[1]; mouse, brain/plasma, iv, 40 mg/kg, 0.50 h, 40 μg/kg [sic], single mice, read-out: RATIO BRAIN/PLASMA
  Kp at 0.5 h: 0.93
[1]; mouse, brain/plasma, iv, 40 mg/kg, 1 h, 40 μg/kg [sic], single mice, read-out: RATIO BRAIN/PLASMA
  Kp at 1 h: 1.42
[1]; mouse, brain/plasma, iv, 40 mg/kg, 4 h, 40 μg/kg [sic], single mice, read-out: RATIO BRAIN/PLASMA
  Kp at 4 h: 2.84
[1]; mouse, brain/plasma, iv, 40 mg/kg, 24 h, 40 μg/kg [sic], single mice, read-out: RATIO BRAIN/PLASMA
  Kp at 24 h: 20.7
[2]
  MTD: 40 mg/kg
[3]; 9.5 to 60.5 mg/kg i.v.
  kinetics in plasma and tumor tissue, linearity: linear over the range studied
[3]; 9.5 to 60.5 mg/kg i.v., 2 minutes
  maximum plasma concentrations, dose linearity: linear with respect to dose
[3]; mouse, plasma, iv, 9.5 mg/kg i.v., 2 minutes
  Cmax at 2 min: 14000 ± 1000 ng/mL
[3]; mouse, plasma, iv, 15.4 mg/kg i.v., 2 minutes
  Cmax at 2 min: 21000 ± 2000 ng/mL
[3]; mouse, plasma, iv, 24.8 mg/kg i.v., 2 minutes
  Cmax at 2 min: 35000 ± 2000 ng/mL
[3]; mouse, plasma, iv, 40 mg/kg i.v., 2 minutes
  Cmax at 2 min: 51000 ± 1000 ng/mL
[3]; mouse, plasma, iv, 60.5 mg/kg i.v., 2 minutes
  Cmax at 2 min: 133000 ± 30000 ng/mL
[3]; mouse, plasma, iv, dose = 40 mg/kg
  AUC(0-t) at 4 h: 35000 ng·h/mL
[3]; mouse, plasma, iv, dose = 40 mg/kg, read-out: AUC 0 to Infinity, Plasma
  AUC(0-inf): 58600 ng·h/mL
[3]; mouse, plasma, iv, dose = 40 mg/kg, read-out: t 1/2, Plasma (converted)
  half-life: 4.4 h
